Measurements: patent publication US20170100493A1, “RECEPTOR IMAGING SYSTEMS AND RELATED METHODS” (The General Hospital Corporation, priority 2015, published 2017)
Like-named read-outs stand apart in the source and are kept apart here. One block for each compound: values may come before it.

Columns and labels:
D2/D3 receptors [1] = target: T1, D2/D3 receptors (Macaca mulatta, UniProt F7CYH8); details: for DBPND^peak / Peak Occ. θ^peak / BP^(0): putamen ROI, animal M1; for BP^(0): baseline [11C]raclopride binding potential
Method: (§1) Two animals (male rhesus macaques: M1 (8 years) and M2 (6 years)) underwent PET/MR imaging. For each study, the animal was anesthetized, initially with 10 mg/kg ketamine and 0.5 mg/kg xylazene, and maintained with isoflurane (1%, mixed with oxygen) after intubation.
(§2) [^11C]Raclopride was injected using a bolus+infusion protocol. […] Boluses were administered by hand over a duration of 30 seconds, after which infusion at a rate of 0.01 ml/s was started with an automatic pump (Medrad Spectra Solaris). Specific activities at time of injection were 3.7±2.8 mCi/nmol. […] Experiments and repeated administration of pharmacological challenges in all NHPs were separated by at least 2 weeks, so that results were not influenced from prior history. […] Additionally, the D2 antagonist prochlorperazine was injected at doses 0.1 and 0.2 mg/kg in animal M2 to serve as a direct comparison to the agonists, and to investigate whether the temporal relationship between occupancy and function that was reported for the short-acting antagonist raclopride (10) was maintained for an antagonist with much longer duration of action.
(§3) Simultaneous PET and MR data were acquired on a prototype scanner that includes a BrainPET insert and a Tim Trio 3T MR scanner (Siemens AG, Healthcare Sector, Erlangen Germany). A custom-built tight-fitting PET compatible 8-channel NHP receive array (34) together with a vendor-supplied local circularly polarized transmit coil was used for MR imaging.
PET emission data were acquired in list-mode format for 100 min starting with radiotracer injection. Images were reconstructed with a 3D Poisson ordered-subset expectation maximization algorithm using prompt and variance-reduced random coincidence events. Normalization, scatter and attenuation sinograms (including attenuation of the radiofrequency coil) were included in the reconstruction (37). […] Framing intervals were 10×30 sec, followed by 1 min frames.
(§4) PET and MR data were registered to the Saleem-Logothetis stereotaxic space (38) with an affine transformation (12 degrees of freedom) using a multi-subject MRI template (39), in which standard regions of interest (ROI) were defined based on anatomy. Alignment of the EPI data used an affine transformation plus local distortion fields. After motion-correcting using AFNI software (40), and after spatially smoothing fMRI data with a 2.5 mm Gaussian kernel, statistical analysis was carried out using the general linear model (GLM). The temporal response to the drug injection was modeled with a gamma-variate function, in which the time-to-peak was adjusted to minimize the χ^2/DOF of the GLM fit to the data. […] Additionally, regressors that correspond to translations in three dimensions and were derived from motion correction were used in the GLM analysis. The resulting signal changes were then converted to percentage changes in CBV by standard methods (41).
PET kinetic modeling employed a general linear model formulation of the simplified reference tissue model (SRTM) (14), with cerebellum as the reference ROI, and the rate constant (k2) for cerebellum derived from the high-binding region putamen using a 2-parameter SRTM model (42).

D2/D3 receptors [2] = target: T1, D2/D3 receptors; details: for Peak CBV: putamen ROI, animal M1
Method: as §1, §2, §3
The phased array enabled 2-fold acceleration with GRAPPA (35) in the anterior-posterior direction. […] To improve fMRI detection power, ferumoxytol (Feraheme, AMAG Pharmaceuticals, Cambridge Mass.) was injected at 10 mg/kg prior to fMRI (36).
as §4

D2/D3 receptors [3] = target: T1, D2/D3 receptors; details: mean±std over doses; model fit to experimental data
Method: The process of receptor desensitization and internalization can be considered in a dynamic occupancy model. In an example of a dynamic occupancy model, the following are assumed: • i. The externalization constant kext is very long, and is thus negligible for timescales <2 h. • ii. Once internalized, receptors can be bound with an affinity α by the PET radiotracer. […] The rate to convert desensitized to internalized receptors is negligible with respect to the relevant experimental timescales.
The concentrations of the free ligand and free DA can both be normalized to the baseline DA occupancy at time zero, such that f describes the fraction of free concentration (relative to baseline DA). The parameter θint describes the fraction of internalized receptors and kDI denotes the desensitization and internalization rate constant. The above equations, plus the measurement models for PET and fMRI are a full description of the RDI model employed in this study for simulation and parameter estimation.
The RDI model was used to generate a family of CBV curves for RDI rates in the range of 1 min to 30 min. An estimate of the RDI constant for each dataset was then achieved by minimizing the residual norm between the model and data after drug injection.

D2 = details: cited from earlier work
D3 = details: cited from earlier work
D2/D3 = details: reported (ref 19); cited from earlier work

T1 sequence (F7CYH8 1-443): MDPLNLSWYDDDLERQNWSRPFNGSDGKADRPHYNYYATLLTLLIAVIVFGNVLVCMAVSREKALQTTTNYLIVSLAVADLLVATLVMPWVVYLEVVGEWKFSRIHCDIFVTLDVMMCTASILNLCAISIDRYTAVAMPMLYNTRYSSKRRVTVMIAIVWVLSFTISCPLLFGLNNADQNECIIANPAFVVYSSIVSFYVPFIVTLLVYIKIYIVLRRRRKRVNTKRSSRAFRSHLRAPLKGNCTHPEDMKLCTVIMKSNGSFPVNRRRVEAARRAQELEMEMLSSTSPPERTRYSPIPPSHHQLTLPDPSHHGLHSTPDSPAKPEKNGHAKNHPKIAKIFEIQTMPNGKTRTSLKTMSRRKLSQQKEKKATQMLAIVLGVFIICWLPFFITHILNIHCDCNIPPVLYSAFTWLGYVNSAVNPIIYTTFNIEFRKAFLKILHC

time at which PET occupancy peaked (D2/D3 receptors [1]; animal M2, FIG. 4): 17.8 min | DBPND^peak (D2/D3 receptors [1]; 0.1 mg/kg): 4.7 | Peak Occ. θ^peak (D2/D3 receptors [1]; 0.1 mg/kg): 7% | DBPND^peak (D2/D3 receptors [1]; 0.3 mg/kg): 2.9 | Peak Occ. θ^peak (D2/D3 receptors [1]; 0.3 mg/kg): 49% | BP^(0) (D2/D3 receptors [1]; 0.1 mg/kg session): 5.1 | BP^(0) (D2/D3 receptors [1]; 0.3 mg/kg session): 5.7 | CBV timecourse peak time after the injection (D2/D3 receptors [2]; 0.1 mg/kg, animal M2): 4.0 min | duration of CBV response in caudate (D2/D3 receptors [2]; 0.1 mg/kg, animal M2): 28.5 min | CBV timecourse peak time after the injection (D2/D3 receptors [2]; 0.3 mg/kg, animal M2): 3.4 min | duration of CBV response in caudate (D2/D3 receptors [2]; 0.3 mg/kg, animal M2): 25.0 min | CBV^peak signal (D2/D3 receptors [2]; animal M2, FIG. 4 comparison of agonists): −8.5% | Peak CBV (D2/D3 receptors [2]; 0.1 mg/kg): −6.6% | Peak CBV (D2/D3 receptors [2]; 0.3 mg/kg): −9.7%
SMILES: CCCN(CCC)CCc1cccc2c1CC(=O)N2 [ropinirole]
1/kDI, in vivo desensitization and internalization time constant (D2/D3 receptors [3]): 8.5 ± 2.1 min | Kd (D2): 970 nM | Kd (D3): 61 nM | potency compared to quinpirole (D2/D3): about seven times less potent

occupancy at CBV peak magnitude (D2/D3 receptors [1]; animal M2): 88% | CBV response peak magnitude (D2/D3 receptors [2]; at 88% occupancy, animal M2): 14.4%
SMILES: CN1CCN(CCCN2c3ccccc3Sc3ccc(Cl)cc32)CC1 [prochlorperazine]
CBV and occupancy timecourses compared (D2/D3 receptors [2]; animal M2, FIG. 4 graph (c)): CBV and occupancy timecourses were matched
